Structures can show the parent of a compound that is named as a salt.
Legend:
MLLT1 = MLLT1 (Homo sapiens, UniProt Q03111); test: biochemical; settings: MLLT1 assay IC50 (nM), HTRF, 6His tagged MLLT1, biotinylated H3K9cro peptide; compound 20 μM to 20 nM, 11 data points in duplicate
MLLT3 = MLLT3 (Homo sapiens, UniProt P42568); test: HTRF IC50 determination assay, MLLT3 / H3K9cro peptide displacement; settings: MLLT3 assay IC50 (nM), 6His tagged MLLT3, biotinylated H3K9cro peptide, compound 20 μM to 20 nM, 11 data points in duplicate
Sequence of MLLT3 (P42568 whole entry): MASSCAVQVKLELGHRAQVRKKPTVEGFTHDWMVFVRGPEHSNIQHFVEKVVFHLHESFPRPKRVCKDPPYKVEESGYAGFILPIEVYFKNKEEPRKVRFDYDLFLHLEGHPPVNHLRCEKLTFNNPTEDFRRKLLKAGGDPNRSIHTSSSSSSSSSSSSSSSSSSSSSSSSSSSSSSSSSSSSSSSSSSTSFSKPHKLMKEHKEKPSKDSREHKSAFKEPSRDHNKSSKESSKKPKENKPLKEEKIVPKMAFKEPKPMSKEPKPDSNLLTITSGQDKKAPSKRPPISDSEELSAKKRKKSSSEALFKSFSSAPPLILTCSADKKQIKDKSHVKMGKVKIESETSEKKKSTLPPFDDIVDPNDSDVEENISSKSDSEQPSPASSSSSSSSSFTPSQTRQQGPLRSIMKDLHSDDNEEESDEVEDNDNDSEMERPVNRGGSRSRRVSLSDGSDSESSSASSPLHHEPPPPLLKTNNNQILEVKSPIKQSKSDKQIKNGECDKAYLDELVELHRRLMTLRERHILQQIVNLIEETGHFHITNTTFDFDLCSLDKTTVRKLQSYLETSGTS

Sequence of MLLT1 (Q03111 whole entry): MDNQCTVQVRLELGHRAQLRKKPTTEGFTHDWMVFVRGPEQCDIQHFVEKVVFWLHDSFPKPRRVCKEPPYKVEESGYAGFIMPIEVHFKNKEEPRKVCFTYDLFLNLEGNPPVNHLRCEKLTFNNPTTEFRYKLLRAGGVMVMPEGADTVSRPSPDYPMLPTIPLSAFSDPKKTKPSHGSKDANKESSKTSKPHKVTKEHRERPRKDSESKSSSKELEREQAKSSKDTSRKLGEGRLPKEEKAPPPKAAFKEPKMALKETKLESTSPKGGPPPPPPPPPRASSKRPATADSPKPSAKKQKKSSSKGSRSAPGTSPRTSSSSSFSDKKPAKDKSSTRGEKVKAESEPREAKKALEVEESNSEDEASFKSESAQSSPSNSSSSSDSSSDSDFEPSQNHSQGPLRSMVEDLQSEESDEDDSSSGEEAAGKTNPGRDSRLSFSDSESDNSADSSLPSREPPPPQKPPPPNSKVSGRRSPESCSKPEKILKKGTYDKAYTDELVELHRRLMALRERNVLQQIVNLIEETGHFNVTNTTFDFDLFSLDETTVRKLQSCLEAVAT

Row | IC50 (MLLT1) | IC50 (MLLT3) | SMILES
1 | < 150 nM | 150 to 1500 nM | Cc1nn(C)c2cc(C(=O)Nc3cn4cc(C5CC(C(C)(C)C)CN5C)nc4cn3)ccc12 (racemic) [Example 84, rac-N-[2-(4-tert-butyl-1-methylpyrrolidin-2-yl)imidazo[1,2-a]pyrazin-6-yl]-1,3-dimethylindazole-6-carboxamide]
2 | 1500 to 20000 nM | > 20000 nM | COc1ccc2c(C(=O)Nc3ccc4nc(C5CCCN5C)cn4c3)c[nH]c2c1 (racemic) [Example 39, rac-6-methoxy-N-[2-(1-methylpyrrolidin-2-yl)imidazo[1,2-a]pyridin-6-yl]-1H-indole-3-carboxamide]
3 | 1500 to 20000 nM | 1500 to 20000 nM | Cc1c(C(=O)Nc2ccc3nc(C4CCCN4C)cn3c2)sc2nc[nH]c(=O)c12 (racemic) [Example 44, rac-5-methyl-N-[2-(1-methylpyrrolidin-2-yl)imidazo[1,2-a]pyridin-6-yl]-4-oxo-3H,4H-thieno[2,3-d]pyrimidine-6-carboxamide]
4 | 150 to 1500 nM | 150 to 1500 nM | CCN1CCCC1c1cn2cc(NC(=O)c3ccc4c(C)nn(C)c4c3)ncc2n1 (single isomer, unassigned) [Example 87, N-{2-[(rel-2R)-1-ethylpyrrolidin-2-yl]imidazo[1,2-a]pyrazin-6-yl}-1,3-dimethylindazole-6-carboxamide]
5 | 150 to 1500 nM | 1500 to 20000 nM | Cc1ncsc1-c1ccc(C(=O)Nc2ccc3nc(C4CCCN4C)cn3c2)c(F)c1 (single isomer, unassigned) [Example 22]
6 | 150 to 1500 nM | 150 to 1500 nM | Cc1ncc(-c2ccc(C(=O)Nc3ccc4nc(C5CCCN5C)cn4c3)c(F)c2)s1 (single isomer, unassigned) [Example 25]
7 | 150 to 1500 nM | 150 to 1500 nM | CN1CCC[C@@H]1c1cn2cc(NC(=O)c3ccc4c(N5CCCCC5)nn(C)c4c3)ncc2n1 [Example 98, 1-methyl-N-{2-[(2R)-1-methylpyrrolidin-2-yl]imidazo[1,2-a]pyrazin-6-yl}-3-(piperidin-1-yl)indazole-6-carboxamide]
8 | 1500 to 20000 nM | 1500 to 20000 nM | Cc1nc(NC(=O)c2cc3cnn(C)c3cc2Cl)cn2cc([C@H]3CCCN3C)nc12 [Example 92, (R)-6-chloro-1-methyl-N-(8-methyl-2-(1-methylpyrrolidin-2-yl)imidazo[1,2-a]pyrazin-6-yl)-1H-indazole-5-carboxamide]
9 | 150 to 1500 nM | 150 to 1500 nM | CN1C[C@@H](F)C[C@@H]1c1cn2cc(NC(=O)c3ccc4c(cnn4C)c3)ncc2n1 [Example 83, N-{2-[(2R,4S)-4-fluoro-1-methylpyrrolidin-2-yl]imidazo[1,2-a]pyrazin-6-yl}-1-methylindazole-5-carboxamide]
10 | 150 to 1500 nM | 1500 to 20000 nM | CN1CCCC1c1cn2cc(NC(=O)c3ccn4ccnc4c3)ccc2n1 (racemic) [Example 32, rac-N-[2-(1-methylpyrrolidin-2-yl)imidazo[1,2-a]pyridin-6-yl]imidazo[1,2-a]pyridine-7-carboxamide]
11 | 150 to 1500 nM | 150 to 1500 nM | CN1CCCC1c1cn2cc(NC(=O)c3ccc4[nH]ccc4c3F)ccc2n1 (racemic) [Example 53, rac-4-fluoro-N-[2-(1-methylpyrrolidin-2-yl)imidazo[1,2-a]pyridin-6-yl]-1H-indole-5-carboxamide]
12 | 150 to 1500 nM | 150 to 1500 nM | Cc1nn(C)c2cc(C(=O)Nc3cn4cc([C@H]5CCCN5C)nc4cn3)ccc12 [Example 70, 1,3-dimethyl-N-{2-[(2R)-1-methylpyrrolidin-2-yl]imidazo[1,2-a]pyrazin-6-yl}-1H-indazole-6-carboxamide]
13 | 1500 to 20000 nM | 1500 to 20000 nM | Cc1nn(C)c2ncc(C(=O)Nc3ccc4nc(C5CCCN5C)cn4c3)c(Cl)c12 (racemic) [Example 15, rac-4-chloro-1,3-dimethyl-N-[2-(1-methylpyrrolidin-2-yl)imidazo[1,2-a]pyridin-6-yl]-1H-pyrazolo[3,4-b]pyridine-5-carboxamide]

Second part, the compound before the results:

Row | SMILES | IC50 (MLLT1) | IC50 (MLLT3)
14 | CN1CCCC1c1cn2cc(NC(=O)c3cccc(-n4cccn4)c3)ccc2n1 (racemic) [Example 43, rac-N-[2-(1-methylpyrrolidin-2-yl)imidazo[1,2-a]pyridin-6-yl]-3-(1H-pyrazol-1-yl)benzamide] | 150 to 1500 nM | 1500 to 20000 nM
15 | CN1CCCC1c1cn2cc(NC(=O)c3ccc(-c4ncccn4)cc3F)ccc2n1 (single isomer, unassigned) [Example 20] | 1500 to 20000 nM | 1500 to 20000 nM
16 | Cc1nc2ccc(C(=O)Nc3ccc4nc(C5CCCN5C)cn4c3)cc2nc1C (racemic) [Example 11, rac-2,3-dimethyl-N-[2-(1-methylpyrrolidin-2-yl)imidazo[1,2-a]pyridin-6-yl]quinoxaline-6-carboxamide] | 150 to 1500 nM | 150 to 1500 nM
17 | Cc1nn(C)c2cc(C(=O)Nc3cn4cc([C@H]5CCCN5)nc4cn3)ccc12 [Example 76, 1,3-dimethyl-N-[2-[(2R)-pyrrolidin-2-yl]imidazo[1,2-a]pyrazin-6-yl]indazole-6-carboxamide] | 150 to 1500 nM | 1500 to 20000 nM
18 | COc1cc(NC(=O)c2ccc3c(C)nn(C)c3c2)cn2cc(C3CCCN3C)nc12 (racemic) [Example 1, rac-N-[8-methoxy-2-(1-methylpyrrolidin-2-yl)imidazo[1,2-a]pyridin-6-yl]-1,3-dimethyl-indazole-6-carboxamide] | 150 to 1500 nM | 150 to 1500 nM
19 | CN1CC2(CC2)C[C@@H]1c1cn2cc(NC(=O)c3ccc4c(cnn4C)c3)ncc2n1 [Example 102, 1-methyl-N-[2-[(6R)-5-methyl-5-azaspiro[2.4]heptan-6-yl]imidazo[1,2-a]pyrazin-6-yl]indazole-5-carboxamide] | < 150 nM | 150 to 1500 nM
20 | CN1CCCC1c1cn2cc(NC(=O)c3ccc4c(cnn4C)c3Cl)ccc2n1 (racemic) [Example 52, rac-4-chloro-1-methyl-N-[2-(1-methylpyrrolidin-2-yl)imidazo[1,2-a]pyridin-6-yl]-1H-indazole-5-carboxamide] | 1500 to 20000 nM | > 20000 nM
21 | Cc1noc2cc(C(=O)Nc3ccc4nc(C5CCCN5C)cn4c3)ccc12 (racemic) [Example 29, rac-3-methyl-N-[2-(1-methylpyrrolidin-2-yl)imidazo[1,2-a]pyridin-6-yl]-1,2-benzoxazole-6-carboxamide] | 1500 to 20000 nM | 1500 to 20000 nM
22 | CN1CCCC1c1cn2cc(NC(=O)c3ccc4cc(F)ccc4c3)ccc2n1 (single isomer, unassigned) [Example 5] | 150 to 1500 nM | 150 to 1500 nM
23 | CN1CC2(CCCC2)CC1c1cn2cc(NC(=O)c3ccc4c(cnn4C)c3)ccc2n1 (racemic) [Example 3, rac-1-methyl-N-(2-{2-methyl-2-azaspiro[4.4]nonan-3-yl}imidazo[1,2-a]pyridin-6-yl)indazole-5-carboxamide] | 150 to 1500 nM | 150 to 1500 nM
24 | CCc1nnc2cc(C(=O)Nc3ccc4nc(C5CCCN5C)cn4c3)ccn12 (racemic) [Example 35, rac-3-ethyl-N-[2-(1-methylpyrrolidin-2-yl)imidazo[1,2-a]pyridin-6-yl]-[1,2,4]triazolo[4,3-a]pyridine-7-carboxamide formate] | 1500 to 20000 nM | 1500 to 20000 nM
25 | CN1CCCC1c1cn2cc(NC(=O)c3ccc(-n4cncn4)cc3)ccc2n1 (racemic) [Example 12, rac-N-[2-(1-methylpyrrolidin-2-yl)imidazo[1,2-a]pyridin-6-yl]-4-(1H-1,2,4-triazol-1-yl)benzamide] | 150 to 1500 nM | 1500 to 20000 nM

— US20260216196A1, “IMIDAZO[1,2-A]PYRIDINE AND IMIDAZO[1,2-A]PYRAZINE DERIVATIVES AS MLLT1 AND MLLT3 INHIBITORS” (DARK BLUE THERAPEUTICS LTD., priority 2022, published 2026)
